Assay results from patent US9499492B2, “4-(ortho)-fluorophenyl-5-fluoropyrimidin-2-yl amines containing a sulfoximine group” (BAYER PHARMA AKTIENGESELLSCHAFT, priority 2012, dated 2016).
Like-named read-outs stand apart in the source and are kept apart here.

What was measured:
[1] = target: CDK2/CycE (Homo sapiens (Human), UniProt P24941); assay: CDK2/CycE kinase assay (Method 2); format: biochemical; conditions: 10 μM ATP
[2] = In vitro metabolic stability in rat hepatocytes (Method 5); format: in vitro ADME, Han Wistar rat; conditions: 1 μM test compound
How it was run: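 Han Wistar rat hepatocytes isolated by 2-step perfusion, incubated at 1.0×10^6 viable cells/ml in Williams medium E with 5% FCS with 1 μM test compound, shaken; samples at 2–90 min quenched with acetonitrile, analysed by LC-MS/MS. Half-life from concentration-time plot, converted to intrinsic clearance.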

[3] = system: DU 145, hormone-independent human prostate carcinoma cells; assay: Proliferation assay, DU 145 (Method 3); format: cell-based; conditions: DU145, 4 days, crystal violet, read-out: Inhibition of DU145 cell proliferation IC50
Description: After 24 hours, the cells of one plate (zero-point plate) were stained with crystal violet (see below), while the medium of the other plates was replaced by fresh culture medium (200 μl), to which the test substances were added in various concentrations (0 μM, as well as in the range of 0.001-10 μM; the final concentration of the solvent dimethyl sulfoxide was 0.5%). The cells were incubated for 4 days in the presence of test substances. Cell proliferation was determined by staining the cells with crystal violet: the cells were fixed by adding 20 μl/measuring point of an 11% glutaric aldehyde solution for 15 minutes at room temperature. After three washing cycles of the fixed cells with water, the plates were dried at room temperature. The cells were stained by adding 100 μl/measuring point of a 0.1% crystal violet solution (pH 3.0). After three washing cycles of the stained cells with water, the plates were dried at room temperature. The dye was dissolved by adding 100 μl/measuring point of a 10% acetic acid solution. The extinction was determined by photometry at a wavelength of 595 nm. The change of cell number, in percent, was calculated by normalization of the measured values to the extinction values of the zero-point plate (=0%) and the extinction of the untreated (0 μm) cells (=100%).

Structure (SMILES) | IC50 [1] [nM] | maximal calculated oral bioavailability (Fmax) based on stability data in rat Hepatocytes [2] [%] | IC50 ([3]; Homo sapiens, DU-145, 96 h) [nM] | IC50 [3] [nM]
CS(=O)(Cc1cc(Nc2ncc(F)c(-c3ccc(F)cc3F)n2)cc(C(F)(F)F)c1)=NC#N (racemic) [Example 1, (rac)-{[3-{[4-(2,4-Difluorophenyl)-5-fluoropyrimidin-2-yl]amino}-5-(trifluoromethyl)benzyl](methyl)oxido-λ^6-sulfanylidene}cyanamide] | 1400 | 75 |  | 
CS(=N)(=O)Cc1cc(Nc2ncc(F)c(-c3ccc(F)cc3F)n2)cc(C(F)(F)F)c1 (racemic) [Example 4, (rac)-4-(2,4-Difluorophenyl)-5-fluoro-N-{3-[(S-methylsulfonimidoyl)methyl]-5-(trifluoromethyl)phenyl}pyrimidin-2-amine] | 880 | 91 |  | 
CS(=N)(=O)Cc1cc(Cl)cc(Nc2ncc(F)c(-c3ccc(F)cc3F)n2)c1 (racemic) [Example 15, (rac)-N-{3-chloro-5-[(S-methylsulfonimidoyl)methyl]phenyl}-4-(2,4-difluorophenyl)-5-fluoropyrimidin-2-amine] | 630 | 79 |  | 
CS(=O)(Cc1cc(Nc2ncc(F)c(-c3ccc(F)cc3F)n2)cc(S(F)(F)(F)(F)F)c1)=NC#N (racemic) [Example 28, (rac)-{[3-{[4-(2,4-Difluorophenyl)-5-fluoropyrimidin-2-yl]amino}-5-(pentafluoro-λ^6-sulfanyl)benzyl](methyl)oxido-λ^6-sulfanylidene}cyanamide] | 1300 |  | 311 | 
CS(=O)(Cc1cc(Nc2ncc(F)c(-c3ccc(F)cc3F)n2)cc(C(F)(F)F)c1)=NC#N (single isomer, unassigned) [Example 3, {[3-{[4-(2,4-Difluorophenyl)-5-fluoropyrimidin-2-yl]amino}-5-(trifluoromethyl)benzyl](methyl)oxido-λ^6-sulfanylidene}cyanamide] | 1300 | 76 |  | 370
CS(=O)(Cc1cc(Nc2ncc(F)c(-c3ccc(F)cc3F)n2)cc(C(F)(F)F)c1)=NC(N)=O (single isomer, unassigned) [Example 23, 1-{[3-{[4-(2,4-Difluorophenyl)-5-fluoropyrimidin-2-yl]amino}-5-(trifluoromethyl)benzyl](methyl)oxido-λ^6-sulfanylidene}urea] | 370 | 93 | 250 | 
CS(=O)(Cc1cc(Nc2ncc(F)c(-c3ccc(F)cc3F)n2)cc(S(F)(F)(F)(F)F)c1)=NC(N)=O (single isomer, unassigned) [Example 33, 1-{[3-{[4-(2,4-Difluorophenyl)-5-fluoropyrimidin-2-yl]amino}-5-(pentafluoro-λ^6-sulfanyl)benzyl](methyl)oxido-λ^6-sulfanylidene}urea] | 1600 |  |  | 507

More lines, in order of falling IC50 [1], values ahead:

IC50 [1] [nM] | maximal calculated oral bioavailability (Fmax) based on stability data in rat Hepatocytes [2] [%] | IC50 ([3]; Homo sapiens, DU-145, 96 h) [nM] | IC50 [3] [nM] | Structure (SMILES)
1600 | 91 | 397 |  | CS(=N)(=O)Cc1cc(Nc2ncc(F)c(-c3ccc(F)cc3F)n2)cc(S(F)(F)(F)(F)F)c1 (single isomer, unassigned) [Example 32, 4-(2,4-Difluorophenyl)-5-fluoro-N-{3-[(S-methylsulfonimidoyl)methyl]-5-(pentafluoro-λ^6-sulfanyl)phenyl}pyrimidin-2-amine]
1200 | 79 | 310 |  | CS(=O)(Cc1cc(Nc2ncc(F)c(-c3ccc(F)cc3F)n2)cc(C(F)(F)F)c1)=NC#N (single isomer, unassigned) [Example 2, {[3-{[4-(2,4-Difluorophenyl)-5-fluoropyrimidin-2-yl]amino}-5-(trifluoromethyl)benzyl](methyl)oxido-λ^6-sulfanylidene}cyanamide]
1100 | 80 |  |  | CS(=O)(Cc1cc(Nc2ncc(F)c(-c3ccc(F)cc3F)n2)cc(C(F)(F)F)c1)=NC(N)=O (racemic) [Example 7, (rac)-1-{[3-{[4-(2,4-Difluorophenyl)-5-fluoropyrimidin-2-yl]amino}-5-(trifluoromethyl)benzyl](methyl)oxido-λ^6-sulfanylidene}urea]
